Measured values: publication PMC9597602, “Metal Complexes as Antifungals? From a Crowd-Sourced Compound Library to the First In Vivo Experiments” (JACS Au, 2022)
Like-named read-outs stand apart in the source and are kept apart here.

Assays:
[1] = tested on: Candida auris CBS10913 JCM 15448; assay: Antifungal MIC assay, extended panel; assay type: cell-based; settings: extended panel; for MIC50 Candida auris CBS10913: 50% inhibition, MIC score 2
In short: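 Yeast strains were grown on YPD agar at 30 °C for 3 days. Five colonies were suspended to 1 × 10^6 to 5 × 10^6 CFU/mL (by OD530), diluted in YNB medium, and dispensed into compound-containing 384-well NBS plates to 2.5 × 10^3 CFU/mL in 50 μL. Covered plates were held at 35 °C for 36 h without shaking, and MIC was determined by broth dilution.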

[2] = tested on: Candida auris CBS12373 KCTC 17810; assay: Antifungal MIC assay, extended panel; assay type: cell-based; settings: extended panel; for MIC Candida auris CBS12373: second batch, ≥80 or ≥50% inhibition; for MIC50 Candida auris CBS12373: 50% inhibition, MIC score 2
In short: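 Yeast was grown for 3 days at 30 °C on YPD agar. Five colonies were suspended to 1 × 10^6 to 5 × 10^6 CFU/mL, checked by OD530, diluted in YNB medium, and dispensed onto compound-loaded 384-well NBS plates at 2.5 × 10^3 CFU/mL in 50 μL. Plates were covered and incubated without shaking at 35 °C for 36 h to determine MIC.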

[3] = tested on: Cryptococcus deuterogattii ATCC 32609 VGII; assay: Antifungal MIC assay, extended panel; assay type: cell-based; settings: extended panel; 50% inhibition, MIC score 2
[4] = tested on: Candida glabrata ATCC 90030 NCCLS 84; assay: Antifungal MIC assay, extended panel; assay type: cell-based; settings: extended panel; 50% inhibition, MIC score 2
[5] = tested on: human red blood cells; assay type: cell-based
In short: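 Washed human erythrocytes at 0.5 × 10^8 cells/mL incubated with compound, then centrifuged. Haemolysis read as supernatant OD405, normalised to untreated cells (0%) and 1% Triton X-100 (100%), with melittin as internal plate control.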

[6] = tested on: G. mellonella larvae; assay: Galleria mellonella in vivo toxicity assay; settings: 10 μL of the highest concentration injected, monitored 6 days
Procedure: Based on criteria of overall antifungal activity, cytotoxicity, and hemolysis as well as compound availability, we selected compounds Co1, Ag2, Eu1, Ir1, Pt1, Pt2, Pt4, Pt5, Au1, Au2, and Au4 to conduct a preliminary in vivo toxicity assay. […] The compounds were dissolved in DMSO and diluted to the highest possible final concentration (Table 3). The larvae were then monitored for 6 days for survival and health using the G. mellonella Health Index Scoring System.[111] […] For the other compounds, no detrimental effects could be observed in the larvae over the monitoring period. […] Nevertheless, factors such as the metabolism, excretion, and/or accumulation of the various metal complexes and their metabolites will still need to be studied more rigorously in rodent models if they are to be advanced into the preclinical pipeline.
The toxicity of compounds was tested in vivo using the G. mellonella model using our previously described methods,[61] Briefly, G. mellonella larvae were reared in a controlled environmental room at Macquarie University, Sydney, Australia, at 30 °C and 65% humidity with a 12-h light/dark cycle. Larvae (200–250 mg) were individually injected with 10 μL of chemical into the last right pro-leg using a 100 μL syringe (Hamilton Ltd.). Each compound was dissolved in DMSO at the maximum concentration given in Table 3 and also diluted in water to final concentrations of 100, 10, and 1 μM. We injected five larvae in triplicate for each of the four dilutions for each compound. Larvae injected with different dilutions of DMSO (10^–1, 10^–2, and 10^–3) were included as negative controls. Following injection, the larvae were incubated at 30 °C and monitored every 24 h for 6 days. Larval performance was assessed according to the G. mellonella Health Index Scoring System.[111] The experiments were repeated over three separate days for biological triplicates.

[7] = tested on: Cryptococcus neoformans H99 ATCC 208821 type strain; assay: Antifungal MIC assay; assay type: cell-based; settings: for MIC50 Cryptococcus neoformans ATCC 208821: 50% inhibition, MIC score 2; for MIC: read-out: MIC* Cryptococcus neoformans ATCC 208821; for MIC Cn: initial CO-ADD dose-response screening, ≥80% growth inhibition
In short: (§1)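 Broth microdilution in YNB medium at a final density of 2.5 × 10^3 CFU/mL, from yeast grown 3 days on YPD agar at 30 °C; incubated 35 °C for 36 h without shaking. MIC is the lowest concentration giving ≥80% growth inhibition (CLSI M27 score 0–1); n = 4–8 from replicate independent runs.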

[8] = tested on: Candida albicans ATCC 90028 NCCLS11; assay: Antifungal MIC assay; assay type: cell-based; settings: for MIC Candida albicans ATCC 90028 / MIC50 Candida albicans ATCC 90028: extended panel; for MIC Candida albicans ATCC 90028: second batch, ≥80 or ≥50% inhibition; for MIC50 Candida albicans ATCC 90028: 50% inhibition, MIC score 2; for MIC Ca: initial CO-ADD dose-response screening, ≥80% growth inhibition
In short: as §1

[9] = tested on: Cryptococcus deuterogattii CBS7750 VGII; Serotype B; assay: Antifungal MIC assay, extended panel; assay type: cell-based; settings: extended panel; 50% inhibition, MIC score 2
[10] = tested on: Cryptococcus deuterogattii CBS7750 VGII; Serotype B; assay: Antifungal MIC assay, extended panel; assay type: cell-based; settings: extended panel, second batch; ≥80 or ≥50% inhibition
Procedure: (§2) For the fungal assays, both fungi (yeast) strains were cultured for 3 days on Yeast Extract-Peptone Dextrose (YPD; Becton Dickinson 242720) agar at 30 °C. A yeast suspension of 1 × 10^6 to 5 × 10^6 CFU/mL (as determined by OD530) was prepared from five colonies from the agar plates, subsequently diluted with Yeast Nitrogen Base media (YNB; Becton Dickinson 233520), and added to each well of the compound containing plates (384-well plates, NBS; Corning CLS3640), giving a final cell density of 2.5 × 10^3 CFU/mL and a total volume of 50 μL. Plates were covered and incubated at 35 °C for 36 h without shaking. […] MIC values were recorded as the lowest concentration at which the growth was inhibited by ≥80%, equivalent to ″optically clear-to-slightly hazy″ or MIC score of 0–1 as per CLSI guidelines M27 Reference Method for Broth Dilution Antifungal Susceptibility Testing of Yeasts. […] Fluconazole (Sigma F8929) was used as internal control on each plate for all strains. All compounds were tested as two technical replicates in two to four independent biological assays, n = 4–8 final data.

[11] = tested on: Candida tropicalis ATCC 750; assay: Antifungal MIC assay, extended panel; assay type: cell-based; settings: extended panel, second batch; ≥80 or ≥50% inhibition
Procedure: as §2

[12] = tested on: Candida glabrata ATCC 90030 NCCLS 84; assay: Antifungal MIC assay, extended panel; assay type: cell-based; settings: extended panel, second batch; ≥80 or ≥50% inhibition
Procedure: as §2

[13] = tested on: Cryptococcus deuterogattii ATCC 32609 VGII; assay: Antifungal MIC assay, extended panel; assay type: cell-based; settings: extended panel, second batch; ≥80 or ≥50% inhibition
Procedure: as §2

[14] = tested on: HEK-293 human embryonic kidney cells ATCC CRL-1573
Procedure: The cells were incubated together with the compounds for 20 h at 37 °C in 5% CO2. […] Tamoxifen (Sigma T5648) was used as internal control on each plate.

[15] = tested on: Candida tropicalis ATCC 750; assay: Antifungal MIC assay, extended panel; assay type: cell-based; settings: extended panel; 50% inhibition, MIC score 2
[16] = tested on: Escherichia coli ATCC 25922 FDA control strain; assay: CO-ADD antibacterial MIC assay; assay type: cell-based; settings: initial CO-ADD dose-response screening; ≥80% growth inhibition
In short: (§3)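 CAMHB broth microdilution; inoculum 5 × 10^5 CFU/mL from mid-log culture; 37 °C 18 h static; OD600 read-out; MIC at ≥80% inhibition; colistin (Gram-negative) and vancomycin (Gram-positive) internal controls.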

[17] = tested on: Pseudomonas aeruginosa ATCC 27853 QC control strain; assay: CO-ADD antibacterial MIC assay; assay type: cell-based; settings: initial CO-ADD dose-response screening; ≥80% growth inhibition
In short: as §3

[18] = tested on: Acinetobacter baumannii ATCC 19606 type strain; assay: CO-ADD antibacterial MIC assay; assay type: cell-based; settings: initial CO-ADD dose-response screening; ≥80% growth inhibition
In short: as §3

[19] = tested on: methicillin-resistant Staphylococcus aureus ATCC 43300; assay: CO-ADD antibacterial MIC assay; assay type: cell-based; settings: initial CO-ADD dose-response screening; ≥80% growth inhibition
In short: as §3

[20] = ranges obtained upon retesting, new batch
[21] = extended panel, second batch, ≥80 or ≥50% inhibition
[22] = read-out: HEK293 CC50, ranges obtained upon retesting, new batch
[23] = second batch, ≥80 or ≥50% inhibition
[24] = initial CO-ADD screening, 1 h, 10% hemolysis

| SMILES | MIC50 Candida auris CBS10913 [1] [µM] | MIC Candida auris CBS12373 [2] [µM] | MIC50 Candida auris CBS12373 [2] [µM] | MIC50 Cryptococcus deuterogattii ATCC 32609 [3] [µM] | MIC50 Candida glabrata ATCC 90030 [4] [µM] | RBC HC10 [5, 20] [µM] | MIC50 Cryptococcus neoformans ATCC 208821 ([7]; extended panel) [µM] | MIC Candida albicans ATCC 90028 [8] [µM] | MIC50 Candida albicans ATCC 90028 [8] [µM] | MIC50 Cryptococcus deuterogattii CBS7750 [9] [µM] | MIC Cryptococcus deuterogattii CBS7750 [10] [µM] | MIC Candida tropicalis ATCC 750 [11] [µM] | MIC Candida glabrata ATCC 90030 [12] [µM] | MIC Cryptococcus deuterogattii ATCC 32609 [13] [µM] | HEK CC50 ([14]; initial CO-ADD screening, 20 h) [µg/mL] | CC50 [14, 22] [µM] | MIC50 Candida tropicalis ATCC 750 [15] [µM] | MIC Candida auris CBS10913 [1, 23] [µM] | MIC Ec [16] | MIC Pa [17] | other results |
| --- | --- | --- | --- | --- | --- | --- | --- | --- | --- | --- | --- | --- | --- | --- | --- | --- | --- | --- | --- | --- | --- |
| c1cnc([S][Au][PH](c2ccco2)(c2ccco2)c2ccco2)nc1 [Au1] | 0.098 to 0.195 | 0.098 to 0.391 | 0.098 to 0.391 | 0.024 to 0.049 | 0.098 to 0.391 | 90 to 200 | 0.098 to 0.195 | 0.049 to 0.391 | 0.049 to 0.391 | 0.024 to 0.098 | 0.024 to 0.391 | 0.049 to 0.391 | 0.098 to 0.781 | 0.098 to 0.391 | >32 | 0.1 to 0.6 | 0.049 to 0.391 |  |  |  | MIC ([1]; second batch, ≥80 or ≥50% inhibition, read-out: MIC* Candida auris CBS10913): 0.098 µM; toxicity [6]: nontoxic; MIC Cryptococcus neoformans ATCC 208821 [7, 21]: 0.098 to 0.195 µM |
| Cc1c(C)c(-c2ccc(-c3ccccc3)cc2)[c-](C)c1C.Cc1ccccc1NC1=[NH+][Ir]([Cl])[NH]C(NS(=O)(=O)c2cccc3c(N(C)C)cccc23)=N1 [Ir3] | 0.098 |  | 0.024 to 0.049 | 0.049 to 0.098 | 0.098 | 3 to 41 | 0.024 | 0.024 to 0.098 | 0.049 | 0.024 | 0.024 to 0.049 |  |  | 0.049 to 0.2 | >32 | 54 to 76 | 0.098 | 0.024 to 0.098 | >32 µg/mL | >32 µg/mL | MIC Ab [18]: >32 µg/mL; MIC MRSA (Sa) [19]: 0.5 µg/mL; RBC HC10 [5, 24]: >32 µg/mL; MIC [7, 21]: 0.024 µM; MIC Cn [7]: 1 µg/mL; MIC Ca [8]: 2 µg/mL; MIC [11]: 0.098 µM; MIC [12]: 0.098 µM |
| CS(=O)(=O)[O][Pd][c]1ccccc1-c1ccccc1N.CS(=O)(=O)[O][Pd][c]1ccccc1-c1ccccc1N [Pd2] | 0.024 to 0.098 | 0.024 to 0.049 | 0.024 to 0.049 | 0.024 to 0.098 | 0.012 to 0.195 | 0.2 to 3 | ≤0.006 to 0.024 | 0.05 to 0.2 | 0.049 to 0.195 | ≤ 0.006 |  | 0.195 to 0.391 | 0.049 to 0.195 | 0.024 to 0.049 |  | 38 to 53 | 0.195 to 0.391 | 0.024 to 0.098 | >20 µM | >20 µM | MIC Ab [18]: >20 µM; MIC MRSA (Sa) [19]: >20 µM; RBC HC10 [5, 24]: >20 µM; MIC [7, 21]: 0.024 µM; MIC Cn [7]: 0.31 µM; MIC Ca [8]: 1.25 µM; MIC [10]: 0.098 µM; CC50 ([14]; read-out: HEK CC50, initial CO-ADD screening, 20 h): > 20 µM |
